Data: patent publication EP0942896B1, “SUBSTITUTED PHENOLS AND THIOPHENOLS USEFUL AS ANTIOXIDANT AGENTS” (Aventis Pharmaceuticals Inc., priority 1996, dated 1998)

Assays:
[1] = Animal parameters (food, body weight, liver weight/body weight, mortality) in rats; type: in vivo; conditions: 4 days; for food / lw/bw / body wt.: % of control, diet 0.3%, N = 5; for food: grams eaten per day per rat; for lw/bw: liver weight/body weight; for lw/bw / body wt. / mortality: rat; for body wt.: weight in grams; for mortality: male, Sprague-Dawley, in vivo
Source text: (§1) A typical experiment consists of 4-6 groups of rats (N = 5 per group) with I group being a control which receives no MDL compound and the other groups being treated with 0.3% MDL compound. Some of the compounds are either repeated at 0.3% or evaluated again at the lower dose of 0.1%. House Male Sprague-Dawley rats, 50-100 g, (Harlan Laboratories, Indianapolis, IN) in groups of 5, feeding ad libitum water and Purina Rodent chow (#5002) with or without MDL compound as a dietary admixture for 4 days. Make dietary admixtures (0.3%) by mixing 1.2 grams of an MDL compound with 400 grams of Purina rodent chow (#5002). Mix the MDL compound with approximately 50 grams of food using a mortar and pestle. This is added to the remainder of the food and mixed for 3 hours on a rotary mixer. In the morning of day 5, anesthetize non-fasted rats with carbon dioxide, and collect blood by cardiac puncture. Sacrifice rats by cervical dislocation. Record body weights and liver weights in grams. Record food consumption as grams • day^-1 • rat^-1. Deaths are recorded as mortality. Use aliquots of fresh serum for clinical chemistries, thiobarbituric acid reactive substances (TBARS) and conjugated diene measurements. Freeze aliquots of serum (∼ 0.5mL) and whole livers at -20°C for compound and metabolite concentration determination at a later time.

[2] = system: oxidation of serum lipids; assay: TBARS assay on serum of treated rats (CuSO4-initiated oxidation); type: in vivo, Male Sprague-Dawley rats; conditions: % of control; thiobarbituric acid reactive substances as nmoles MDA, rat serum; diet 0.3%, 4 days; N = 5
Source text: as §1
In this assay the oxidation of serum lipids is initiated with CuSO4, resulting in the formation of aldehydes, such as malondialdehyde (MDA). Upon incubation with thiobarbituric acid, the absorbance of the aldehydes can be detected at 530-540 nm. As stated in the previous example, TBARS values which are lower than control serum values indicate the relative ability of a test compound to inhibit the oxidation of lipids in a sample. Measure TBARS as follows: mix 100µL of serum with 400µL of a 5mmol CuSO4 solution and incubate at 37°C for 3 hr. Stop the reactions by addition of 1.0mL of 20% trichloroacetic acid. Then add 1.0mL of 0.67% thiobarbituric acid in 0.05 N sodium hydroxide, mix, and incubate the samples for 30 min at 90°C. Centrifuge samples briefly to pellet undissolved material, and transfer the supernatants to a 96-well microtiter plate. Measure absorbances at 540 nm using a Biotek model EL311 microplate reader. The nmoles of MDA produced are calculated from a standard curve of 0 to 10 nmoles of MDA prepared from malonaldehyde bis(dimethylacetal). Serum samples from treated rats are compared to serum samples from control rats that received no MDL compound.

ICAM-1 [3] = assay: Inhibition of cytokine-induced ICAM-1 expression in human aortic smooth muscle cells (cell ELISA); type: cell-based; conditions: HASMC, tumor necrosis factor-alpha stimulated, average of two runs, numbers in parentheses represent negative values, read-out: ICAM-1 (% inh. 50 µM)
Description: (§2) Plate proliferating human umbilical vein endothelial cells (HUVEC) or human aortic smooth muscle cells (HASMC) from Clonetics (San Diego, CA) onto 96-well plates in 100 µL medium per well at 20,000 cells per cm^2. Maintain the cultures in growth medium (EGM or SMGM2, Clonetics, San Diego, CA) for two days prior to addition of cytokines or drugs. Add cytokines plus or minus compounds for 20 to 24 hours prior to analysis for adhesion molecule levels. Add tumor necrosis factor (Genzyme, Cambridge, MA) to cultures at 500-1000 units/mL to stimulate ICAM-1 expression. Add interleukin-4 (GIBCO-BRL, Gaithersburg, MD) to cultures at 100-200 pg/mL to stimulate VCAM-1 expression. […] Remove the culture medium, and wash the monolayers twice with Hanks buffered saline solution (HBSS) at room temperature. Add the primary antibody (anti-human VCAM-1 from Upstate Biotechnology, Inc., Lake Placid, NY or anti-human ICAM-1 from Immunotech, Inc., Westbrook, ME) to each well (1 µg/mL in HBSS plus 5% newborn calf serum, GIBCO-BRL, Gaithersburg, MD) and incubate at 37°C for 1 hr. Wash the wells twice with HBSS, then add 100 µL of a 1/1000 dilution of goat anti-mouse IgG conjugated to horse radish peroxidase (BioRad, Hercules, CA) in HBSS plus 5% newborn calf serum to each well and incubated for 1 hr at 37°C. Wash the wells three times with HBSS, then add 100 µL of TMB substrate (BioRad, Hercules, CA) to each well. Stop the reaction after blue color develops by addition of 50 µL of IN H2SO4. Measure absorbance at 450 nm with a plate reader.
Table 1 summarizes the ability of selected compounds of this invention to inhibit VCAM-1 and ICAM-1 using human aortic smooth muscle cells (HASMC). In these experiments, the cells were coincubated with interleukin-4 to stimulate VCAM-1 expression and with tumor necrosis factor-alpha to stimulate ICAM-1 expression.

ICAM-1 [4] = assay: Inhibition of ICAM-1 expression in proliferating human umbilical vein endothelial cells (cell ELISA); type: cell-based; conditions: HUVEC, coincubated with tumor necrosis factor-alpha about 20 to 24 hr, average of two runs, read-out: ICAM-1 (% inh. 50 µM)
Description: as §2, with “reader. […] In these experiments, the cells were coincubated with tumor necrosis factor-alpha along with the indicated compounds about 20 to 24 hr before assaying cell surface adhesion molecule expression.” for “reader.”

| Compound | food [1] | lw/bw [1] | body wt. [1] | mortality [1] | TBARS [2] | inhibition at 50 µM (ICAM-1 [3]) | inhibition at 50 µM (ICAM-1 [4]) |
| --- | --- | --- | --- | --- | --- | --- | --- |
| CC(C)=CCC[C@H](C)CCOc1cc(C(C)(C)C)c(O)c(C(C)(C)C)c1 [MDL 103,294, Phenol, 2,6-bis(1,1-dimethylethyl)-4-[(3,7-dimethyl-6-octenyl)oxy]-, (S)-] | 108% | 129% | 101% | 0% | 18% | – | – |
| CC(C)=CCCC(C)CCSc1cc(C(C)(C)C)c(O)c(C(C)(C)C)c1 (centres unmarked) [MDL 103,960, Phenol, 2,6-bis(1,1-dimethylethyl)-4-[(3,7-dimethyl-6-octenyl)thio]-] | 105% | 130% | 100% | 0% | 24% | 0% | 9.5% |
| CC(C)CCCC(C)CCOc1ccc(O)c(C(C)(C)C)c1 (centres unmarked) [MDL 104,191, Phenol, 2-(1,1-dimethylethyl)-4-[(3,7-dimethyloctyl)oxy]-] | 76% | 126% | 92% | 0% | 20% | 22% | 70.5% |
| CC(C)=CCC[C@@H](C)CCOc1cc(C(C)(C)C)c(O)c(C(C)(C)C)c1 [MDL 104,535, Phenol, 2,6-bis(1,1-dimethylethyl)-4-[(3,7-dimethyl-6-octenyl)oxy]-,(R)-] | 95% | 119% | 102% | 0% | 11% | 10% | 11.5% |
